According to patent publication US11484608B2, “Non-invasive assessment of hepatic mitochondrial metabolism by positional isotopomer NMR tracer analysis (PINTA)” (YALE UNIVERSITY, priority 2017, dated 2022):

Experiments:
[1] = system: primary mouse hepatocytes; assay: In vitro glucose production, VPC and lipolysis in isolated hepatocytes; format: cell-based; conditions: for glucagon-stimulated VPC flux / glucagon-stimulated glucose production: WT hepatocytes, 100 nM glucagon, 8 hr
Experimental: For in vitro glucose production and lipolysis studies, primary mouse hepatocytes were isolated by the Yale Liver Center. Following removal of cell debris by Percoll density gradient centrifugation, cells were plated on 6-well collagen-I coated dishes (4.0×10^5 cells/well) in 2 ml recovery media (DMEM High Glucose containing 10% FBS, 2% penicillin-streptomycin, 100 nM dexamethasone, 1 nM insulin, and 10 mM HEPES). After incubation for 6 hr at 37° C. and 5% CO2, the attached cells were washed once in 1×PBS and then incubated overnight in 2 ml Low Glucose Culture Media (DMEM Low Glucose supplemented with 10% FBS, 2% penicillin-streptomycin and 10 mM HEPES for glucose production studies) or Serum Free Low Glucose Culture Media (DMEM Low Glucose supplemented with 0.5% fatty acid free BSA, 2% penicillin-streptomycin and 10 mM HEPES for lipolysis assays). […] After incubation for 8 hr at 37° C. and 5% CO2, cell culture media was collected for analysis of glucose, NEFA, and glycerol concentrations as described above. VPC was determined by measuring VPC/VEGP by PINTA as described above using 300 μL of the collected media, and multiplying this ratio by the measured glucose production rate. In a subset of studies, cells were incubated for 8 hr during the glucose production assay in media containing one of the following agents (all dissolved in 0.5% DMSO), or 0.5% DMSO vehicle: 20 μM ET-18-OCH3 (Santa Cruz), 100 μM U-73122 (Sigma), 30 nM thapsigargin (Sigma), 100 nM vasopressin (Sigma) 50 μM 2-APB (R&D Systems), 70 μM caffeine (Sigma), 1 mM malic enzyme inhibitor hydroxymalonate (Sigma). To inhibit PKA, hepatocytes were incubated in H-89 […] hydrate (Sigma, 25 μM) dissolved in media, or media lacking H-89 as a control. In the insulin treatment studies, hepatocytes were incubated in 1 nM insulin with 5% BSA and glucose production media for the duration of the glucose production assay. In the in vitro atglistatin study, hepatocytes were incubated in 10 μM atglistatin in 0.1% EtOH, or 0.1% EtOH vehicle. All values were normalized to total protein content determined from whole-cell lysates by a BCA protein assay (Thermo Fisher Scientific) according to the manufacturer's instructions and expressed as fold change verses vehicle-treated cells.

[2] = system: primary hepatocytes (cytosolic and mitochondrial calcium); assay: Ca2+ imaging in isolated hepatocytes; format: cell-based, mouse
Experimental: Primary hepatocytes were isolated by the Yale Liver Center from wild-type and InsP3R-I KO mice and plated on glass coverslips coated with Rat Collagen Type I. Cells were loaded with the ratiometric cytosolic Ca^2+ indicator dye, Fura-2 AM (Thermo Fisher Scientific), or the mitochondrial matrix-targeted Ca^2+ indicator, Rhod-2 AM (Thermo Fisher Scientific) according to manufacturer's instructions. Ca^2+ imaging experiments were performed in 4-(2-hydroxyethyl)-1-piperazine ethanesulfonic acid (HEPES)-buffered balanced salt solution (25 mM HEPES, 121 mM NaCl, 4.7 mM KCl, 1.2 mM MgSO4, 1.2 mM KPO4, 5 mM NaHCO3, 2.0 mM CaCl2, 10 mM Glucose, pH 7.4) with or without the PKA inhibitor H-89 (25 μM) two to five hr following initial plating. Coverslips were transferred to a custom-built perfusion chamber on the stage of an inverted microscope connected to a RedShirtImaging camera (Olympus Life Science, Waltham, Mass.). […] For cytoplasmic calcium readings, changes in fluorescence (F, λ=340) were normalized by the initial fluorescence (F0, λ=380) and were expressed as F/F0. […] Individual cell responses were normalized to their respective baseline Rhod-2 AM fluorescence values, and changes were expressed as Normalized Δ Fluorescence.

[3] = system: hepatic gluconeogenesis and mitochondrial oxidation (VPC, VCS); assay: Alanine replacement in 48 hr fasted rats; format: in vivo, rat
Experimental: Hepatic fluxes (whole-body glucose turnover, VPC and VCS), liver TCA cycle intermediate concentrations, and plasma metabolites and hormones were measured as described below (Flux Measurements). […] Liver and muscle glycogen concentrations were assessed using amyloglucosidase digestion. Liver TAG content was measured using the method of Bligh and Dyer (Bligh and Dyer, Can. J. Biochem. Physiol. 37, 911-917, 1959): lipids were extracted from livers using 2:1 chloroform:methanol, and the Sekisui triglyceride-SL reagent was used to measure triglyceride content spectrophotometrically. Liver and muscle DAG content and liver acetyl- and malonyl-CoA concentrations were measured by LC-MS/MS as described by Yu and Perry (Yu, et al. J. Biol. Chem. 2002, 277, 50230-50236; Perry, et al., J. Clin. Invest. 2017, 127, 657-669). […] The samples were homogenized in […] ice-cold methanol using a TissueLyser and filtered through a Nanosep filter. LC-MS/MS (AbSCIEX 6500 QTRAP with a Shimadzu ultrafast liquid chromatography system, negative ion mode) was again used to monitor the relevant ion pairs: succinate and [^13C4]succinate, 117/99 and 121/103, respectively; malate and [^13C4]malate, 133/115 and 137/119, respectively; and citrate and [13C6]citrate, 191/173 and 197/179, respectively. […] Hepatic PKCε translocation, gluconeogenic enzyme protein expression, ApoB (antibody from Meridian Life Science, Memphis, Tenn.), and PGC1α (antibody from Santa Cruz Biotechnology, Dallas, Tex.) protein expression were assessed by western blot. Expression of each of these proteins was normalized to GAPDH.

ATGL = molecular target: T1, ATGL (Rattus norvegicus, UniProt P0C548); assay: ATGL inhibitor atglistatin in 0, 6, 16 and 48 hr fasted rats; format: in vivo
T1 construct: from tissue; host or cells: live rat, in vivo (intraperitoneal dosing)
T1 sequence (P0C548 1-478): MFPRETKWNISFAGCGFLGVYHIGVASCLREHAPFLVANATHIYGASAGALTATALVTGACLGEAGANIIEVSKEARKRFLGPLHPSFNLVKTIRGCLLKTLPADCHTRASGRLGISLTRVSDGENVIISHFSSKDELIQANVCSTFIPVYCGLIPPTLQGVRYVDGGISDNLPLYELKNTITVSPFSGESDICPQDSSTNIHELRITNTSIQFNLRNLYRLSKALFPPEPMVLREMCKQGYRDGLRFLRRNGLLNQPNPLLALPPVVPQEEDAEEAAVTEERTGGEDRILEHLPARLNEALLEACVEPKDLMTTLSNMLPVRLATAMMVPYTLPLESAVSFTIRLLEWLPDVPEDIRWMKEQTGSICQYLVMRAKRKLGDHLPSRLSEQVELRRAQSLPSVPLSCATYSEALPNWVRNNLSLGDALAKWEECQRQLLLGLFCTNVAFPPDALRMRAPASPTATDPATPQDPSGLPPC
Experimental: Liver and muscle glycogen concentrations were assessed using amyloglucosidase digestion. Liver TAG content was measured using the method of Bligh and Dyer (Bligh and Dyer, Can. J. Biochem. Physiol. 37, 911-917, 1959): lipids were extracted from livers using 2:1 chloroform:methanol, and the Sekisui triglyceride-SL reagent was used to measure triglyceride content spectrophotometrically. Liver and muscle DAG content and liver acetyl- and malonyl-CoA concentrations were measured by LC-MS/MS as described by Yu and Perry (Yu, et al. J. Biol. Chem. 2002, 277, 50230-50236; Perry, et al., J. Clin. Invest. 2017, 127, 657-669). […] The samples were homogenized in […] ice-cold methanol using a TissueLyser and filtered through a Nanosep filter. LC-MS/MS (AbSCIEX 6500 QTRAP with a Shimadzu ultrafast liquid chromatography system, negative ion mode) was again used to monitor the relevant ion pairs: succinate and [^13C4]succinate, 117/99 and 121/103, respectively; malate and [^13C4]malate, 133/115 and 137/119, respectively; and citrate and [13C6]citrate, 191/173 and 197/179, respectively. […] Hepatic PKCε translocation, gluconeogenic enzyme protein expression, ApoB (antibody from Meridian Life Science, Memphis, Tenn.), and PGC1α (antibody from Santa Cruz Biotechnology, Dallas, Tex.) protein expression were assessed by western blot. Expression of each of these proteins was normalized to GAPDH.

glucocorticoid receptor = glucocorticoid receptor (Rattus norvegicus, UniProt P06536)
Experimental: 8, 16, and 48 hr fasted rats were injected with a small molecule inhibitor of glycogen phosphorylase, 1-(3-(3-(2-Chloro-4,5-difluorobenzoyl) ureido)-4-methoxyphenyl)-3-methylurea (Sigma #361515; 5 mg/kg IV) and a tracer infusion of [2,3,3,3-^2H4]alanine ([…]prime for 5 min and […] continuous) and [3-^3H]glucose (0.3 μCi/min prime for 5 min and 0.3 μCi/min continuous) as well as [^13C4] β-hydroxybutyrate, [1,1,2,3,3-^2H5]glycerol, and [^13C16]palmitate at the rates listed in Table 9, for 120 min. Blood samples were obtained before (time zero) and 120 min after treatment with the glycogen phosphorylase inhibitor for measurement of turnover rates and plasma hormone/substrate concentrations. Hepatic acetyl-CoA content was altered by treatment with a CPT-1 inhibitor (etomoxir, 8 mg/kg) or an ATGL inhibitor (atglistatin, […]) in 0, 6, 16, and 48 hr fasted rats. Both agents were solubilized by suspending the drug in 4% ethanol/96% normal saline, heating to 60° C., and sonicating, and were cooled to room temperature before they were injected intraperitoneally. […] In these animals plasma glucose concentrations were measured every 15 minutes and a variable infusion of 20% glucose (Pfizer Hospira, Lake Forest, Ill.) was used to maintain plasma glucose concentrations ˜3.6-3.7 mM. The physiologic role of glucocorticoids was assessed in 6 and 48 hr fasted rats by treatment with a glucocorticoid receptor antagonist, mifepristone. Following a 2 hr tracer infusion at the rates described above to assess fatty acid, glycerol, glucose, and β-hydroxybutyrate turnover, rats were injected with mifepristone (40 mg/kg) IV. The tracer infusion was continued and the tracer of each of the above substrates was again measured 2 hr after treatment with mifepristone.
All whole-body substrate turnover rates were calculated using the equation Turnover=([Tracer APE/Plasma APE]−1)*Infusion rate, where APE designates the atom percent enrichment measured by mass spectrometry as described below (Biochemical Analysis). All chemicals used for flux analysis were obtained from SIGMA. Turnover of glucose, glycerol, and β-hydroxybutyrate were determined by gas chromatography-mass spectrometry (GC-MS). Briefly, both glucose and glycerol were deprotonized with 5 volumes of methanol, derivitized with 3 volumes of 1:1 acetic anhydride:pyridine, heated to 65° C. for 20 min, and 1 volume of methanol was added, then GC-MS was used in CI mode to measure glucose enrichment and EI mode to measure glycerol enrichment, with turnover calculated using the equation above. β-Hydroxybutyrate was deprotonized with 5 volumes of methanol and derivitized with 3 volumes of n-butanol 4N HCl, after which the samples were heated to 65° C. for 60 min, evaporated under N2 gas, and re-suspended in […] of trifluoroacetic acid:methylene chloride (1:7). Fatty acid turnover was measured by determining the plasma palmitate enrichment by GC-MS. Samples were prepared for measurements of palmitate enrichment by evaporating […] plasma, dissolving in […] 1:1 chloroform:methanol and derivitizing with […] boron trifluoride/methanol, then heating to 100° C. for 5 min, adding 2 mL pentane and 1 mL water, and centrifuging at low speed for 5 min. […] Alanine turnover was determined in rats infused with [2,3,3,3-^2H4]alanine by preparing samples to measure alanine enrichment by GC/MS (CI mode) using the same protocol as was employed to measure β-hydroxybutyrate enrichment.

[4] = 48-hr fasted rats, 40 mg/kg IV, 2 hr
[5] = hepatocytes, 100 nM vasopressin

Chain of glucocorticoid receptor (P06536 whole entry, the tested form may be a part): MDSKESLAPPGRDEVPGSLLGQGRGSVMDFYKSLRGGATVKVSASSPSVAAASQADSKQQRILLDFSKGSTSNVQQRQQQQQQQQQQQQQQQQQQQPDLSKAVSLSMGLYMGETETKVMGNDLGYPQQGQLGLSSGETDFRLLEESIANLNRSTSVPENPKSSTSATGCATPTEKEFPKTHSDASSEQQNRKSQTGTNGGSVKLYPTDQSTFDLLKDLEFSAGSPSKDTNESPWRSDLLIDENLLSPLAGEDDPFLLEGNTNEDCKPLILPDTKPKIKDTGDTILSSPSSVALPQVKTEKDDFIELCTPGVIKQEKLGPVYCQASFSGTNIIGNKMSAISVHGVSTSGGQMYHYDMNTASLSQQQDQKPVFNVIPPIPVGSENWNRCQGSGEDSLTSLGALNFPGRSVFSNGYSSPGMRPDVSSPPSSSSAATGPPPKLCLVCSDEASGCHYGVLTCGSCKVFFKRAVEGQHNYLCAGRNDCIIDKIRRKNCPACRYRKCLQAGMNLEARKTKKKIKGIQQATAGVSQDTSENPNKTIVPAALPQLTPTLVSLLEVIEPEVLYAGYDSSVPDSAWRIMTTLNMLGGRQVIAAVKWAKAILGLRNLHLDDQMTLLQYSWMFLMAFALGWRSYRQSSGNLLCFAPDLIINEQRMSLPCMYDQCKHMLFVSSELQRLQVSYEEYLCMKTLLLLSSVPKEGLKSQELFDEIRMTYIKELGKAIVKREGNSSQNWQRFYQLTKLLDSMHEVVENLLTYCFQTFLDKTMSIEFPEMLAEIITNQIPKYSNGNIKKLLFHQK

## O=S(=O)(NCCNC/C=C/c1ccc(Br)cc1)c1cccc2cnccc12 [H-89, H-89 dichloroacetate hydrate]
[1]
  glucagon-stimulated VPC flux: abrogated
  glucagon-stimulated glucose production: abrogated
[1]; isolated hepatocytes
  effect of glucagon to stimulate intrahepatic lipolysis: abrogated
[2]; WT hepatocytes, H-89 25 μM
  calcium response to glucagon: abrogated

## C[C@H](N)C(=O)O [alanine]
[3]; alanine 45 mmol/(kg-min) 2 hr
  plasma glucose, insulin, and lactate concentrations: increased
[3]; alanine infusion
  endogenous glucose production: increased
  increase in plasma leptin concentrations: 3 fold
  liver tricarboxylic acid cycle intermediate concentrations: increased
  plasma glucagon: independent of any change
  pyruvate carboxylase flux (VPC): increased
  rates of hepatic mitochondrial oxidation (VCS): increased

## CN(C)C(=O)Nc1cccc(-c2ccc(N(C)C)cc2)c1 [atglistatin]
ATGL; 16- and 48-hr fasted rats
  plasma corticosterone concentration: increases
  plasma glucose concentrations: decreased
  plasma leptin: reductions
ATGL; 16- to 48-hr fasted rats
  hepatic acetyl-CoA content, hepatic gluconeogenesis, and plasma glucose and insulin concentrations: suppressed
ATGL; 48-hr fasted rats
  WAT lipolysis: suppression
  hepatic acetyl-CoA content: suppression
ATGL; fasted rats
  plasma lactate, epinephrine, and norepinephrine concentrations and hepatic malonyl-CoA content: unchanged
[1]
  glucagon-stimulated VPC flux: no effect
  glucagon-stimulated glucose production: no effect

## CC#C[C@]1(O)CC[C@H]2[C@@H]3CCC4=CC(=O)CCC4=C3[C@@H](c3ccc(N(C)C)cc3)C[C@@]21C [mifepristone]
Glucocorticoid receptor; 48-hr fasted rats
  reduction in plasma leptin concentrations: 60%
Glucocorticoid receptor; [4]
  WAT lipolysis: decreased
  ketogenesis: decreased
  plasma glucose concentrations: decreased
  whole-body glucose turnover: decreased
Glucocorticoid receptor; recently fed rats (6 hr)
  WAT lipolysis, whole body glucose turnover, or plasma glucose or insulin concentrations: no impact

## NC(=O)CC[C@@H]1NC(=O)[C@H](Cc2ccccc2)NC(=O)[C@H](Cc2ccc(O)cc2)NC(=O)[C@@H](N)CSSC[C@@H](C(=O)N2CCC[C@H]2C(=O)N[C@@H](CCCN=C(N)N)C(=O)NCC(N)=O)NC(=O)[C@H](CC(N)=O)NC1=O [vasopressin]
[1]; [5]
  VPC (effect of glucagon): recapitulated
  glucose production (effect of glucagon): recapitulated
[1]; hepatocytes, vasopressin
  intrahepatic lipolysis (effect of glucagon): recapitulated
[2]; isolated WT hepatocytes (not InsP3R-I KO), 100 nM glucagon or 50 nM vasopressin
  mitochondrial and cytosolic calcium signaling: almost identical increase
